Laboratory results reported in PubChem BioAssay (NCI).
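Step 1: Grow cells in 96-well plates. Step 2: Expose to compound for 48 hours at 5 concentrations. Step 3: Interpolate endpoints linearly; if unreached, use highest concentration. GI50 marks 50% less growth. TGI is the concentration that stops growth completely.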

Assays:
Assay in all cases: inhibition of tumour cell growth, NCI panel, 48 h
DU-145 prostate = test system: DU-145 prostate
HOP-62 NSCLC = test system: HOP-62 NSCLC
HS 578T breast = test system: HS 578T breast
KM12 colon = test system: KM12 colon
NCI-H522 lung = test system: NCI-H522 lung
NCI/ADR-RES ovarian = test system: NCI/ADR-RES ovarian
PC-3 prostate = test system: PC-3 prostate
SW-620 colon = test system: SW-620 colon
TK-10 renal = test system: TK-10 renal
U251 CNS = test system: U251 CNS

Row | SMILES | TGI (DU-145 prostate) | TGI (HOP-62 NSCLC) | TGI (HS 578T breast) | TGI (KM12 colon) | TGI (NCI-H522 lung) | TGI (NCI/ADR-RES ovarian) | TGI (PC-3 prostate) | TGI (SW-620 colon) | TGI (TK-10 renal) | TGI (U251 CNS) | GI50 (DU-145 prostate) | GI50 (HOP-62 NSCLC) | GI50 (HS 578T breast) | GI50 (KM12 colon) | GI50 (NCI-H522 lung) | GI50 (NCI/ADR-RES ovarian) | GI50 (PC-3 prostate) | GI50 (SW-620 colon) | GI50 (TK-10 renal) | GI50 (U251 CNS)
1 | COc1ccccc1C(=O)Nc1ccc(Cl)c(C(=O)OC(C)C)c1 | > 100 µM | > 100 µM | > 100 µM | > 100 µM | > 81.4 µM | 64.4 µM | > 100 µM | > 100 µM | > 100 µM | > 100 µM | – | – | – | – | – | – | – | – | – | –
2 | COC(=O)[C@]12CC[C@@H](C)[C@H](C)[C@@H]1C1=CC[C@@H]3[C@@]4(C)C(C=O)=C[C@@](C)(COC(=O)c5ccco5)C4=CC[C@@]3(C)[C@]1(C)CC2 | 15.9 µM | 13.6 µM | 34.1 µM | 19.9 µM | 10.9 µM | 26.1 µM | > 100 µM | 11.2 µM | 12.5 µM | 10.8 µM | 3.81 µM | 3.4 µM | 3.72 µM | 3.27 µM | 3.31 µM | 4.84 µM | 2.97 µM | 3.1 µM | 2.42 µM | 2.06 µM
3 | Cn1c(=O)c2[nH]c(CCS)nc2n(C)c1=O | > 100 µM | > 100 µM | 99.7 µM | > 100 µM | > 100 µM | > 100 µM | > 100 µM | > 100 µM | > 100 µM | > 100 µM | – | – | – | – | – | – | – | – | – | –
4 | C=CC(=O)N1CCC(CNc2ncnc(N)c2-c2ccc(Oc3ccccc3)cc2)CC1 | > 100 µM | 82.6 µM | 95.2 µM | > 100 µM | 32.5 µM | 79.4 µM | > 100 µM | > 100 µM | > 100 µM | > 100 µM | 32.9 µM | 25.8 µM | 24 µM | 28.7 µM | 10.4 µM | 24.6 µM | 24.9 µM | 33.5 µM | 21.4 µM | 25.7 µM
5 | Fc1cccc(-c2nc(-c3c[nH]c4ncccc34)cs2)c1 | > 100 µM | > 100 µM | 16.7 µM | > 100 µM | > 100 µM | > 100 µM | > 100 µM | > 100 µM | > 100 µM | > 100 µM | > 100 µM | 25.7 µM | 2.95 µM | > 100 µM | > 100 µM | > 100 µM | > 100 µM | > 100 µM | 25.9 µM | 25 µM
6 | Cn1c(=S)c2[nH]c(SCc3cccnc3)nc2n(C)c1=O | > 100 µM | > 100 µM | > 100 µM | > 100 µM | > 100 µM | > 100 µM | > 100 µM | > 100 µM | > 100 µM | > 100 µM | – | – | – | – | – | – | – | – | – | –
7 | CN1CCN(c2ccc(NC(=O)c3cncnc3Nc3ccc4c(ccn4Cc4cccc(F)c4)c3)cc2)CC1 | 7.87 µM | 8.84 µM | 11.8 µM | 6.76 µM | 6.59 µM | 11 µM | 6.74 µM | 2.35 µM | 11.1 µM | 4.92 µM | 3.82 µM | 3.9 µM | 3.63 µM | 2.33 µM | 1.63 µM | 4.81 µM | 2.06 µM | 0.828 µM | 5.87 µM | 1.3 µM
8 | COc1ccccc1N1CCN(CC(O)Cn2c(=O)c3c(OC)nc(C)cc3c(=O)n2-c2ccccc2)CC1 (stereo not given) | > 100 µM | > 100 µM | > 100 µM | > 100 µM | > 100 µM | > 100 µM | > 100 µM | > 100 µM | 81.7 µM | > 100 µM | > 100 µM | 43.7 µM | 25.7 µM | > 100 µM | > 100 µM | 87.9 µM | 43 µM | > 100 µM | 19.4 µM | 31.6 µM
9 | NC1=C(/C(N)=N/O)C(c2ccccc2)c2ccc3ccccc3c2O1 (stereo not given) | > 37.2 µM | > 100 µM | > 77.6 µM | 36.4 µM | 26.7 µM | 1.65 µM | > 100 µM | > 100 µM | > 100 µM | 19.8 µM | 0.463 µM | 0.524 µM | 0.276 µM | 0.302 µM | 0.145 µM | 0.0578 µM | 0.291 µM | 0.243 µM | 20.2 µM | 0.41 µM
10 | COC(=O)C1OC(SCCN)C(O)C(O)C1O (stereo not given) | > 100 µM | > 100 µM | > 100 µM | > 100 µM | > 100 µM | > 100 µM | > 100 µM | > 100 µM | > 100 µM | > 100 µM | – | – | – | – | – | – | – | – | – | –
11 | CCCCCC/C=C\CCCCCCCCCc1cccc(OC)c1O | > 100 µM | > 100 µM | > 100 µM | > 100 µM | > 100 µM | > 100 µM | > 100 µM | > 100 µM | > 100 µM | > 100 µM | – | – | – | – | – | – | – | – | – | –
